Values after ≈ are worked out from the molar mass of the structure shown. “Also recorded” adds a separate entry of the source. Counter-ions that a name gives are not always drawn. Like-named read-outs stand apart in the source and are kept apart here. Values belong to the compound of their own block, whether it stands above or below them.
How the values were obtained:
[1] = In vitro release of drugs from tablets (USP basket procedure, water, 100 rpm, 37° C.); format: physicochemical; details: for constancy of release: PEO tablets of MW 0.9×10^6, 2×10^6, 4×10^6 (FIGS. 9-14); for effect of drug loading on release: PEO tablets, different drug loadings
Description: A set of tablet punches with flat surfaces were used to prepare tablets of various diameters, including 7 mm, 8.1 mm, 9.5 mm, and 11 mm. They were charged with the formulation, and the compression of 2000 to 4000 pounds was exerted by turning over the machine by hand.
In vitro release of drugs from the different formulation tablets was carried out by using the USP basket procedure in distilled/deionized water at a stirring rate of 100 rpm and 37° C., if not otherwise stated. Theophylline and diltiazem HCl were chosen as model drugs. The release of theophylline and diltiazem HCl was assayed by a HP.backslash.8252A (Hewlett Packard Corporation) diode-array spectrophotometer at 244 nm and 266 nm, respectively. The release kinetic data (up to 60% release) were treated by equation (1) above.
According to the criteria for release kinetics from a swellable matrix (cylindrical shape), zero-order and anomalous transport kinetics are represented by 0.89 <n<1.0 and 0.45<n<0.89, respectively. A linear regression analysis (Microsoft Excel 5.0) of the logarithmic form of equation (1) was carried out with R^2 ≥0.99.
(§1) A set of tablet punches with flat surfaces were used to prepare the tablets having diameters of 11.1 mm and weights of 550 mg except for the sulfathiazole tablets which were 9.5 mm in diameter and weighed 400 mg. All the tablets were compressed to 4000 pounds.
as §1, with “Similarly, FIGS. 10, 12 and 14 show particular drugs used for testing with their typical solubilities. A” for “A”, “The” for “All the”
A set of tablet punches with flat surfaces were used to prepare the tablets having diameters of 11.1 mm and weights of 550 mg except for the sulfathiazole tablets, which were 9.5 mm in diameter and weighed 400 mg. All the tablets were compressed to 4000 pounds per square inch.

[2] = cited from earlier work
[3] = PEO MW 4×10^6, 20% drug loading
[4] = PEO MW 4×10^6, 39% drug loading

Compound: O=C(O)c1ccccc1O [salicylic acid]
release at which profiles from 20% and 39% loaded tablets cross ([1]; PEO MW 2×10^6 (FIG. 31)): about 50%
release kinetics exponent n [1, 3]: 0.72
release kinetics exponent n [1, 4]: 0.81
constancy of release [1]: Constant release rates over the longest period of time

Compound: O=C(O)Cc1ccccc1Nc1c(Cl)cccc1Cl [diclofenac sodium]
n (release kinetics exponent) ([1]; PEO MW 0.9×10^6, 20% drug loading (FIG. 31)): 0.93
effect of lactose on release kinetics ([1]; PEO MW 4×10^6, 39% drug vs 20% drug and 19% lactose, same total weight (FIG. 6)): superimposable (except for the final stage of release); also recorded: superimposable (except in the final stage of release)
constancy of release [1]: least constant release; also recorded: constant or near constant release kinetics
effect of drug loading on release [1]: did not significantly change

Compound: Cn1c(=O)c2[nH]cnc2n(C)c1=O [theophylline]
release exponent (n) ([1]; PEO MW 0.9×10^6 tablet (FIG. 2)): 0.99 (±0.024)
release exponent (n) ([1]; PEO MW 2×10^6 tablet (FIG. 2)): 0.80 (±0.004)
release exponent (n) ([1]; PEO MW 4×10^6 tablet (FIG. 2)): 0.83 (±0.019)
effect of pH of dissolution medium on release ([1]; PEO tablets (FIG. 3)): not significantly influenced by the pH variation
constancy of release [1]: least constant release; also recorded: constant or near constant release kinetics
effect of drug loading on release [1]: superimposed
solubility ([2]; in water): < 1.0%

period of release ([1]; PEO MW 4×10^6 (FIG. 14)): relatively short
release kinetics exponent n ([1]; PEO MW 4×10^6 (FIG. 14)): 1.10
Compound: Nc1ccc(S(=O)(=O)Nc2ccccn2)cc1 [sulfapyridine]
effect of 39% versus 20% drug loading on release profile ([1]; PEO tablets (FIG. 31)): shifted to the left of the release profiles from 20% loaded tablets

Compound: COc1ccc([C@@H]2Sc3ccccc3N(CCN(C)C)C(=O)[C@@H]2OC(C)=O)cc1 [diltiazem HCl, diltiazem hydrochloride]
solubility ([2]; in water): > 50%

Compound: Nc1ccc(S(=O)(=O)Nc2ncccn2)cc1 [sulfadiazine]
constancy of release [1]: most constant release over the longest period of time

release at which profiles from 20% and 39% loaded tablets cross ([1]; PEO MW 4×10^6 (FIG. 31)): about 50%
release kinetics exponent n [1, 3]: 0.78
release kinetics exponent n [1, 4]: 0.94
shape of release profile ([1]; PEO tablets (FIGS. 10, 12, 14)): slightly sigmoidal profile
Compound: Nc1ccc(S(=O)(=O)Nc2nccs2)cc1 [sulfathiazole]
constancy of release [1]: Constant release rates over the longest period of time
solubility [2]: 590 mg/L (≈ 2310 µM)

— US5945125A, “Controlled release tablet” (Temple University, priority 1996, dated 1999)
